These are literature values, as cited in patent EP4160208A1, “URINE SEDIMENT STAINING LIQUID” (TOYOBO CO., LTD., priority 2020, dated 2021).

On to `O=S(=O)(O)CCNC(CO)(CO)CO` [TES], for which the pKa is reported as 7.50.
For `O=S(=O)(O)CCN(CCO)CCO` [BES], the pKa is reported as 7.15.
Take `O=S(=O)(O)CCN1CCN(CCO)CC1` [HEPES]: the pKa is 7.55.
Regarding `NC(=O)CN(CC(=O)O)CC(=O)O` [ADA], the pKa is 6.80.
Turning to `O=C(O)CNC(CO)(CO)CO` [Tricine], the pKa is on record as 8.15.

One may read the pKa as the pH at which an ionisable group is half protonated.
